# Measurements as given in patent publication US6939951B1, “Refolding of membrane proteins” (M-Phasys GmbH, priority 1999, dated 2005).
# What was measured:
# [1] = cmc-value (critical micellar concentration) of detergents, own measurements of the inventors; assay type: physicochemical; settings: reflects solubility of detergent in water
# Excerpt: The inventors of the submitted application have, namely, recognized that the low yield and the lacking reproducibility in the known methods is to be assigned to the second detergent. […] Further, it has to be taken care that the second detergent, in its final concentration, is above the critical micellar concentration. […] Above the cmc-value, the concentration of solved detergent-monomers is constant.
# According to own measurements of the inventors, the cmc-values for alkyl-phosphorylcholine with an alkyl rest of C12, C13, C14 or C16 are 500, 150, 50 or 5 μM.
# AO adenosine receptor = assay: adenosine binding to refolded receptor by flow dialysis; design: species or system shark Squalus acanthias; settings: refolded receptor in Alkyl(C16)phosphorylcholine/lipid micelles, after 48 hours at 4° C.
# Excerpt: The cDNA of one of the following receptors is, in-frame, inserted into the vector pGEX2a-c-His: AO adenosine receptor from the shark Squalus acanthias, human beta-2-adrenergic receptor, human neuropeptide YY1 receptor, human neuropeptide YY2 receptor, human melanocortine-1 receptor, human oxytocin receptor. This vector contains downstream of the Tac-promotor the sequence encoding glutathione-S-transferase and a subsequent thrombin cleavage site, followed by a polylinker sequence and, finally, six histidine codons and a stop codon.
# 2 ml of 3% sarcosyl are resuspended in PBS and stored on ice. 2 ml of inclusion bodies obtained in example 2 are added and mixed and treated for one minute with sonication. Immediately afterwards, 16 ml of 0.1% detergent stock solution in PBS are added.
# Thereafter, a dialysis against 2 l of PBS is performed for four hours, as well as adding of 1 mM of GSH/0.1 mM GSSG from a 100× stock solution in water.
# The solution is then stored for 48 hours at 4° C., whereupon, by flow dialysis, the adenosine binding was detectable, i.e. the receptor was present in native form.
compound,measurement,setting,value
CCCCCCCCCCCCCOP(=O)([O-])OCC[N+](C)(C)C [alkyl-phosphorylcholine C13],cmc-value,[1],150 µM
CCCCCCCCCCCCCCOP(=O)([O-])OCC[N+](C)(C)C [alkyl-phosphorylcholine C14],cmc-value,[1],50 µM
CCCCCCCCCCCCCCCCOP(=O)([O-])OCC[N+](C)(C)C [alkyl-phosphorylcholine C16],cmc-value,[1],5 µM
CCCCCCCCCCCCOP(=O)([O-])OCC[N+](C)(C)C [alkyl-phosphorylcholine C12],cmc-value,[1],500 µM
Nc1ncnc2c1ncn2[C@@H]1O[C@H](CO)[C@@H](O)[C@H]1O [adenosine],adenosine binding,AO adenosine receptor,detectable
